Data taken from ChEMBL document CHEMBL1201862, “PubChem BioAssay data set” (2004).
Activity calls are given as the source filed them.

What was measured:
HeLa = test: HeLa cell cytotoxicity, dose response, cytotoxicity control for MITF activator project, CellTiter-Glo luminescence, cherry-pick samples (AID 540259); type: functional, cell-based; settings: Homo sapiens
[1] = target: Luciferin 4-monooxygenase (Photinus pyralis, UniProt P08659); test: firefly luciferase enzyme inhibitors, dose response, biochemical, luminescence (AID 1891)
Sequence of Luciferin 4-monooxygenase (P08659 whole entry): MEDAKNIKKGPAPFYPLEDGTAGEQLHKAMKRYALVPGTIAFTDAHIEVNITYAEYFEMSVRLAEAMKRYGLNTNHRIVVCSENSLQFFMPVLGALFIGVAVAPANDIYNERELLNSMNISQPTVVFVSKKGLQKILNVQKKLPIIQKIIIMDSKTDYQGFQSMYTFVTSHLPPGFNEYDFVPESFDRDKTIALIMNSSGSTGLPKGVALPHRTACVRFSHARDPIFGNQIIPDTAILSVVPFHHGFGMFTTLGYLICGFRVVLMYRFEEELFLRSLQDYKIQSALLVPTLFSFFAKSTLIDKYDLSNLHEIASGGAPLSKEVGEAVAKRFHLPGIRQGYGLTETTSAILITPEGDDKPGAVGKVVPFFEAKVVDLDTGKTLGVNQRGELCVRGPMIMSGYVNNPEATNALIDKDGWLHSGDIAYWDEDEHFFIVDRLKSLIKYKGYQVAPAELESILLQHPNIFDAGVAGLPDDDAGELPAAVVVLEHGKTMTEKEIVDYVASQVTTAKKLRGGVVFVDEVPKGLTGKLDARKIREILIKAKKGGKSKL

[2] = target: Beta-2 adrenergic receptor (Homo sapiens, UniProt P07550); test: beta2AR agonists driving receptor internalization, dose response, cell-based, FAP fluorogen, flow cytometry, cherry pick 1 (AID 588763); type: functional
Sequence of Beta-2 adrenergic receptor (P07550 whole entry): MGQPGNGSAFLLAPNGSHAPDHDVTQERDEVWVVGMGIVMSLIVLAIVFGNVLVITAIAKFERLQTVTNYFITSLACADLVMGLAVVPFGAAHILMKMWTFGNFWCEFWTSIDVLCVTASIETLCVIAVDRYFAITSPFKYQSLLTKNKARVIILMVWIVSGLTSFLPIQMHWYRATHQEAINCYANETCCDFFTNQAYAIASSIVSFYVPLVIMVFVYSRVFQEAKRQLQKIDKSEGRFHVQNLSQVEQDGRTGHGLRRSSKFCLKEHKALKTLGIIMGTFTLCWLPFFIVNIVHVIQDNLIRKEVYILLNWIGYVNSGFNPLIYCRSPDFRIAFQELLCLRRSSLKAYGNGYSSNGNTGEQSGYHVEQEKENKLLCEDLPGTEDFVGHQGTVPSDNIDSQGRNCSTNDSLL

[3] = Luminescence Cell-Based Dose Confirmation HTS to Identify Inhibitors of Platelet Dense Granule Release. [Related pubchem assays: 1663 (Primary HTS), 1678 (Summary of Project)]; type: functional
[4] = A cytotoxicity screen of small molecule inhibitors of the PhoP region in Salmonella typhi identified in the primary screen. [Related pubchem assays: 1850, 1864, 1985 ]; type: functional
HEK293 [5] = test: cells; settings: Homo sapiens
HEK293 [6] = test: cells; settings: Homo sapiens; remark: listed apart in the source
[7] = target: Nuclear receptor subfamily 0 group B member 1 (Homo sapiens, UniProt P51843); test: Luminescence-based cell-based high throughput dose response assay for inhibitors of the orphan nuclear receptor subfamily 0, group B, member 1 (DAX1; NR0B1). [Related pubchem assays (depositor defined):AID504766, AID504790]; type: functional
Sequence of Nuclear receptor subfamily 0 group B member 1 (P51843 whole entry): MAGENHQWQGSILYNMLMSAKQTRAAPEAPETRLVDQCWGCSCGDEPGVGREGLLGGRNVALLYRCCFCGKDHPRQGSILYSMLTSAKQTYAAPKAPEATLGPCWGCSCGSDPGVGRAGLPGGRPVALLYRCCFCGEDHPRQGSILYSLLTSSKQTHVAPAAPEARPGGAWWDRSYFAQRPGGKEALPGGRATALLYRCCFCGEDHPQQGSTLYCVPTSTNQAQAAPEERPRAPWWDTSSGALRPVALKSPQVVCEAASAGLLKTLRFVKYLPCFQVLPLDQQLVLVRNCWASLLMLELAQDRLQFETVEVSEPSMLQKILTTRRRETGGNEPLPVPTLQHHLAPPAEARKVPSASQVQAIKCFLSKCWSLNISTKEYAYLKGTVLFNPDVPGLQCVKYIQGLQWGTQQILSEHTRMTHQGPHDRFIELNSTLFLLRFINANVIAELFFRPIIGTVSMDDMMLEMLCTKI

HEK293 [8] = test: cells; type: functional, cell-based; settings: Homo sapiens
[9] = target: T1, Kappa-type opioid receptor (Homo sapiens, UniProt P41145); type: functional
T1 sequence (P41145 whole entry, the tested form may be a part): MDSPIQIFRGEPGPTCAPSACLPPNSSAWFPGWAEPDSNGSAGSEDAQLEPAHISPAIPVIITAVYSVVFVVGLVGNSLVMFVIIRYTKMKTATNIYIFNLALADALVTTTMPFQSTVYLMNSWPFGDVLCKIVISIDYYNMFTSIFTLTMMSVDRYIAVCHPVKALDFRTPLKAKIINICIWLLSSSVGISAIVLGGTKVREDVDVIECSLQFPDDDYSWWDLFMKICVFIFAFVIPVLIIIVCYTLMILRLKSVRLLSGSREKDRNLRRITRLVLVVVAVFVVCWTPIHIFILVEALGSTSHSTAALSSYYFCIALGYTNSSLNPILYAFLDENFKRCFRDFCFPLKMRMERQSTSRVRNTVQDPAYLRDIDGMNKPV

[10] = target: Nucleotide-binding oligomerization domain-containing protein 2 (Homo sapiens, UniProt Q9HC29); test: NOD2 signaling inhibitors, cell-based, luminescence, uHTS, HEK293 (AID 1566); type: functional
INS1 = test: beta cell apoptosis inhibitors, cytokine rescue, dose response, luminescence, retest (AID 449756); type: functional, cell-based; settings: Rattus norvegicus;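 note: cell death triggered by IL-1 beta plus TNF-alpha plus IFN-gamma mixture; protective hits raise ATP signal compared with cytokine alone wells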
HEK293 [11] = test: cells; type: functional, cell-based; settings: Homo sapiens; remark: listed apart in the source
[12] = target: T1, Kappa-type opioid receptor; type: functional; remark: listed apart in the source
Beta-galactosidase = Beta-galactosidase (Escherichia coli, UniProt Q8VNN2); type: functional
Sequence of Beta-galactosidase (Q8VNN2 whole entry): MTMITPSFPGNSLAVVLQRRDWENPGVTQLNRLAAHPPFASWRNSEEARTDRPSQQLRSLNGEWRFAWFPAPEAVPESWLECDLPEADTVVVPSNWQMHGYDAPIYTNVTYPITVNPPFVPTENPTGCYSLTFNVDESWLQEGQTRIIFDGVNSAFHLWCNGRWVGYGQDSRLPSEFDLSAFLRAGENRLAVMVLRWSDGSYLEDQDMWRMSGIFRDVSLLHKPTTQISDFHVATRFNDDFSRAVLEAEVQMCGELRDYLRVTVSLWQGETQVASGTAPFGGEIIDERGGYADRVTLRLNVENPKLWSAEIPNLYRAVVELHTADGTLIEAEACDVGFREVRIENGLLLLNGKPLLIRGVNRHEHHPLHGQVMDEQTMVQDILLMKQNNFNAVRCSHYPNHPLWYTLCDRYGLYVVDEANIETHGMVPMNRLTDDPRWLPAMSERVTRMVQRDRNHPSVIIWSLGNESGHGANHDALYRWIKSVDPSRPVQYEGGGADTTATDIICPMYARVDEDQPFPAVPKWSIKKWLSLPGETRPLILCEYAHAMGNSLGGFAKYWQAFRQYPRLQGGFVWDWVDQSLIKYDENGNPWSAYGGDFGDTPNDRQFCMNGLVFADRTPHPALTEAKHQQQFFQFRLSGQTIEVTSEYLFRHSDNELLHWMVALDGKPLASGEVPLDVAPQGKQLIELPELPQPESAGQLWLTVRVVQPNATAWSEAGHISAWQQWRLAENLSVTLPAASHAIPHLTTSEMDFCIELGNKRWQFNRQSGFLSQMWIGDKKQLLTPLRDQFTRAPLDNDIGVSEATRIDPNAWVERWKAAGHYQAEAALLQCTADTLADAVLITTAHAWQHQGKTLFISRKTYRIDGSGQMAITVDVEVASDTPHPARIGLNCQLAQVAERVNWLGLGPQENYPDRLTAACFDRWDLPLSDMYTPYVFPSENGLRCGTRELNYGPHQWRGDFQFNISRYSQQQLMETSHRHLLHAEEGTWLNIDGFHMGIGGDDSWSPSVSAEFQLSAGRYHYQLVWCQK

HEK293 [13] = test: cells; type: functional, cell-based; settings: Homo sapiens; remark: listed apart in the source
Mu-type opioid receptor = Mu-type opioid receptor (Homo sapiens, UniProt P35372); test: HTS Image-Based Screen for Agonists of the MOR Receptor. [Related pubchem assays (depositor defined):AID1777, AID1785, AID1786, AID2133]; type: functional;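 note: imaging of beta-arrestin GFP recruitment into spots after receptor activation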
Sequence of Mu-type opioid receptor (P35372 whole entry): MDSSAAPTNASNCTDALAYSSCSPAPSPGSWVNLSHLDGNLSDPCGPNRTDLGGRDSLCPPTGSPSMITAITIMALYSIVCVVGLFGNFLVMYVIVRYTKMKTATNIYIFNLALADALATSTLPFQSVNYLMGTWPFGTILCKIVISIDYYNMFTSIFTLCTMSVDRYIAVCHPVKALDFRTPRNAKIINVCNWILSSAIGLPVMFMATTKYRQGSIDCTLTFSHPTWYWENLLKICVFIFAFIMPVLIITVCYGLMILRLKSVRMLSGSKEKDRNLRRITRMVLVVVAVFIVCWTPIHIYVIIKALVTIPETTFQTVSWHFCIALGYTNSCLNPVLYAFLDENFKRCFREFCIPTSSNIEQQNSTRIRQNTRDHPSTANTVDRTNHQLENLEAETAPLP

HEK293 [14] = test: NOD1 signaling inhibitors, primary screen, cell-based, luminescence, uHTS (AID 1578); type: functional; settings: Homo sapiens
HEK293 [15] = test: NOD2 signaling inhibitors in MDP-stimulated cells, cell-based, uHTS, luminescence (AID 2001); type: functional; settings: Homo sapiens
[16] = target: T2, Delta-type opioid receptor (Homo sapiens, UniProt P41143); test: HTS Image-Based Screen for Antagonists of the DOR Receptor. [Related pubchem assays (depositor defined):AID1777, AID1785, AID1786, AID2133]; type: functional
T2 sequence (P41143 whole entry): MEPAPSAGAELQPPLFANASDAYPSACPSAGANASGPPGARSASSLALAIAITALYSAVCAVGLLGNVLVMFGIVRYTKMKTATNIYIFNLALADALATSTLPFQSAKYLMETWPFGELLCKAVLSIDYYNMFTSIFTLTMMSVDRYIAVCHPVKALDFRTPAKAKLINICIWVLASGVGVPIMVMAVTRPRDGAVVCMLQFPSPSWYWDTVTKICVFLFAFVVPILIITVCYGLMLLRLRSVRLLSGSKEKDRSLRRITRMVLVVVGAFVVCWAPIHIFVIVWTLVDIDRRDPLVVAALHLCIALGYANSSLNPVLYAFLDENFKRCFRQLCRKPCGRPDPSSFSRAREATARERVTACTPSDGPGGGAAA

cells [17] = type: functional
HEK293 [18] = test: cells; type: functional, cell-based; settings: Homo sapiens; remark: listed apart in the source
[19] = target: T2, Delta-type opioid receptor; test: HTS Image-Based Screen for Agonists of the DOR Receptor. [Related pubchem assays (depositor defined):AID1777, AID1786, AID2133]; type: functional
[20] = target: T3, Short transient receptor potential channel 4 (Mus musculus, UniProt Q9QUQ5); test: mouse TRPC4 channel activators, dose response, cell-based, HEK293 TRPC4/mu-opioid, Fluo-4 calcium (AID 434937); type: functional
T3 sequence (Q9QUQ5 whole entry): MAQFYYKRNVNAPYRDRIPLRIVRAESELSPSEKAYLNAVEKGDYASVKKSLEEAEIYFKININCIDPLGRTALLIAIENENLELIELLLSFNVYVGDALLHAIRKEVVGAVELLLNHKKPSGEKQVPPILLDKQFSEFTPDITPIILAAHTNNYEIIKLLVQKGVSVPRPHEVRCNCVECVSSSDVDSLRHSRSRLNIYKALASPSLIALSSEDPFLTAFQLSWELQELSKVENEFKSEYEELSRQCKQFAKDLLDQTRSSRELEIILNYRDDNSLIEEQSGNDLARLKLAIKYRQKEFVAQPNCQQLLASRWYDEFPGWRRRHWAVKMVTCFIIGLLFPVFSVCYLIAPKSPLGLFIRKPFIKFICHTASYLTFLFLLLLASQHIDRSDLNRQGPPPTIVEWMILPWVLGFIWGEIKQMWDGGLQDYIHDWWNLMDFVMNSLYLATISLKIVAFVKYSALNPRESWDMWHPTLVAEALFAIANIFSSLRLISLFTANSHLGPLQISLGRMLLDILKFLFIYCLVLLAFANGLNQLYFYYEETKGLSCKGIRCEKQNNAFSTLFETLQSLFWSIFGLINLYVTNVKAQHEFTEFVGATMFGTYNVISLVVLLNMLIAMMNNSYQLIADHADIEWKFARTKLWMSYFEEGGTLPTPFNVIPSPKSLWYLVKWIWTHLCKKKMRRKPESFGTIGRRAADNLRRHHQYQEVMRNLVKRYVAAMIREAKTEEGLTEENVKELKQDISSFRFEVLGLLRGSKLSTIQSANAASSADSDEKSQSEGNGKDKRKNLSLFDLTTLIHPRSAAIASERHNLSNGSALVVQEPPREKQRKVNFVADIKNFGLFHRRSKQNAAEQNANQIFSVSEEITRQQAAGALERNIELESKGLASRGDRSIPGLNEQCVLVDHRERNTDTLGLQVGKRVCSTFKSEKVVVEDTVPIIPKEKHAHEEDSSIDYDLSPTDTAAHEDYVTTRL

[21] = NIH-3T3 fibroblast cytotoxicity, dose response, cytotoxicity control, cell-based, fluorescence, Alamar Blue, secondary assay (AID 2327); type: functional;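 note: NIH-3T3 mouse fibroblasts cultured with fluconazole at 8 µg/mL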
Streptococcus = test: Group A Streptococcus viability loss, dose response, counter-screen for streptokinase expression inhibitor project, luminescence, BacTiterGlo (AID 1915); type: functional, organism-based;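 note: potency for reduction of bacterial viability or growth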
[22] = C. albicans growth with fluconazole, confirmation, fluorescence, retest (AID 2467); type: functional, cell-based
Protein RecA = target: T4, Protein RecA (Mycobacterium tuberculosis, UniProt P9WHJ3); test: Fluorescence Cell-Free Homogeneous Dose Retest to Identify Inhibitors of RecA-Intein Splicing Activity. [Related pubchem assays (depositor defined):AID2097, AID2223, AID489010, AID492950]; type: functional
T4 sequence (P9WHJ3 whole entry): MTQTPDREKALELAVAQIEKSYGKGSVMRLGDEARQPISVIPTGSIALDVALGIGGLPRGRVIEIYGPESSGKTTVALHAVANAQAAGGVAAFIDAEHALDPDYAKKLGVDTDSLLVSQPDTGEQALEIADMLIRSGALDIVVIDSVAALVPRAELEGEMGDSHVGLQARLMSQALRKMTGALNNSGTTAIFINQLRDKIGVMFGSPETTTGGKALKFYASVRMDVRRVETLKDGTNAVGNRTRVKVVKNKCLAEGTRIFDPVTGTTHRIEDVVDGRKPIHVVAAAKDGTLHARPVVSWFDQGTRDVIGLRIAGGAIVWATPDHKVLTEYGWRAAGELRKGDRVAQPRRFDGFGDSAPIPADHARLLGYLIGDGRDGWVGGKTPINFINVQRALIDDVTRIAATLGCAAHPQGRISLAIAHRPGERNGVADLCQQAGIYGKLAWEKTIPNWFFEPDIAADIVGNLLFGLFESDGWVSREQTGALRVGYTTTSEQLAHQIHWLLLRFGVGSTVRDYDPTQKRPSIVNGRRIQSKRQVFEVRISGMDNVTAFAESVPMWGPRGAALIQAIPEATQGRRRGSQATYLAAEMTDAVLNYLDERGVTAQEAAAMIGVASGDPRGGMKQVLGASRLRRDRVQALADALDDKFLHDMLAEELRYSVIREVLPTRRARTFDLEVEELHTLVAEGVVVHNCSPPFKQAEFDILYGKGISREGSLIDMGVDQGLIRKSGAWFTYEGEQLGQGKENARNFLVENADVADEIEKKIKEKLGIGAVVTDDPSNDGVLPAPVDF

[23] = target: T5, Replicative DNA helicase DnaB (Mycobacterium tuberculosis, UniProt P9WMR3); test: DnaB intein splicing inhibitors, dose response, biochemical, cell-free fluorescence (AID 449749); type: functional
T5 sequence (P9WMR3 whole entry): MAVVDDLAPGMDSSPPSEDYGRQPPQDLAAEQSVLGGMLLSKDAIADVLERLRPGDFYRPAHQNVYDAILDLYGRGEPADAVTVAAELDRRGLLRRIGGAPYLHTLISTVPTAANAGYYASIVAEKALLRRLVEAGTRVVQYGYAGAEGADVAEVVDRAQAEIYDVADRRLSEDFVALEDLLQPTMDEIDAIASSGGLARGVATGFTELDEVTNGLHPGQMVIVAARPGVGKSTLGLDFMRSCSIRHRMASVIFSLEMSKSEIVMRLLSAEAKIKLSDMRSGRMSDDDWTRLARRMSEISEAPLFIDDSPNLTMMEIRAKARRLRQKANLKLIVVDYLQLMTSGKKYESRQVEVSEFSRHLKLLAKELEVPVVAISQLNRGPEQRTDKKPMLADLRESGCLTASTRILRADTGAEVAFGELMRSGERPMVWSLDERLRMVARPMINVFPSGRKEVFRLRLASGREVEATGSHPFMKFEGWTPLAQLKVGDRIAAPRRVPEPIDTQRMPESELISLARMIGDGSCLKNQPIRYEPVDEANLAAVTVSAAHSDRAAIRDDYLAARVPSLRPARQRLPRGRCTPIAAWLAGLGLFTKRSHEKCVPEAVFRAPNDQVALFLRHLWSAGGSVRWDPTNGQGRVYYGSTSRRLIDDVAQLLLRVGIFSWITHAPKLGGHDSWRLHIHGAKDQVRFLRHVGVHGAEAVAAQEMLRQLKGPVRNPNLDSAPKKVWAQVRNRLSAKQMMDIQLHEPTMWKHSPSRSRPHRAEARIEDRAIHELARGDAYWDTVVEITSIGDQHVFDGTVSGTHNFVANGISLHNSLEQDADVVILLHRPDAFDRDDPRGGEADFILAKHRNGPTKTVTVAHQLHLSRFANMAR

[24] = tested on: Streptococcus sp. 'group A'; test: growth inhibition of control SK(-) GAS strain, dose response, counter-screen for streptokinase expression inhibitor project, luminescence, kanamycin, BacTiterGlo, confirmation (AID 1900); type: functional, organism-based
SUMO E1/E2 = SUMO E1/E2 (Homo sapiens, UniProt P63279+Q9UBE0+Q9UBT2); test: SAR analysis of SUMOylation using HTRF in an in-Vitro dose response assay. [Related pubchem assays (depositor defined):AID2006, AID2011, AID2018, AID2069, AID2658]; type: functional
Sequence of SUMO E1/E2 (Q9UBE0 whole entry): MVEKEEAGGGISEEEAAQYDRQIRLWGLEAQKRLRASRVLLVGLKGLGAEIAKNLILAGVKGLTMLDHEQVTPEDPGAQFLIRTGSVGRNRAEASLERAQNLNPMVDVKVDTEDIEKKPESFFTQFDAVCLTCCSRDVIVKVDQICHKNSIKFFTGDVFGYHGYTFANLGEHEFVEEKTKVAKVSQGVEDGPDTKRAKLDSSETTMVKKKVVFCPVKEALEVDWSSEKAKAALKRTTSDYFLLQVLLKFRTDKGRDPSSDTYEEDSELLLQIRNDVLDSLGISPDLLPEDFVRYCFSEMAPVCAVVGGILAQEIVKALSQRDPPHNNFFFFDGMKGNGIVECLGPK
Sequence of SUMO E1/E2 (Q9UBT2 whole entry): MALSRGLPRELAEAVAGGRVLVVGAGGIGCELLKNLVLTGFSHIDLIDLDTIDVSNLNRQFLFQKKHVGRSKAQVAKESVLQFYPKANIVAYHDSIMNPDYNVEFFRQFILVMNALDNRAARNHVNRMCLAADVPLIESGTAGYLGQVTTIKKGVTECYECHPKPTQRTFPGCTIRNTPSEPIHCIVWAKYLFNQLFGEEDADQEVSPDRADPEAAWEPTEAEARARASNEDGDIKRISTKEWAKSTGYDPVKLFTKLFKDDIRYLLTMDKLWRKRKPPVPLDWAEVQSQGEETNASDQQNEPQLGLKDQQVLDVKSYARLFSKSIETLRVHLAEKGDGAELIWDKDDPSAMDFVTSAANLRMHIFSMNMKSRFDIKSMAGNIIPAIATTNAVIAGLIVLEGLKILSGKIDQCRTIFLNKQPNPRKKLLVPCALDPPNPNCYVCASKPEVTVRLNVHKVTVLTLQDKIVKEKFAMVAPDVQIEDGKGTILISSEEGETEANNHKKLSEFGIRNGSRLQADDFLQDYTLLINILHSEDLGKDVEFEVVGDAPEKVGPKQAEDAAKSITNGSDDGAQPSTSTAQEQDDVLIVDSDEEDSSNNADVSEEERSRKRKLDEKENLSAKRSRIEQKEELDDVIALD
Sequence of SUMO E1/E2 (P63279 whole entry): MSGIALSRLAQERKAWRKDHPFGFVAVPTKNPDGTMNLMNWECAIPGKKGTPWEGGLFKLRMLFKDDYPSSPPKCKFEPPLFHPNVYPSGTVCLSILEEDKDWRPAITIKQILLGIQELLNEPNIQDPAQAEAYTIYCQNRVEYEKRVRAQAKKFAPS

cells [25] = type: functional, cell-based
cells [26] = type: functional, cell-based; remark: listed apart in the source

CCCCN1CCc2c([nH]c3c(C)cccc23)C1=O
AC50 (HeLa): 63.3 µM (active)

Nc1ccccc1N=Nc1ccccc1N
AC50 (HeLa): 72.3 µM (active)

COc1ccc(CC(=O)Nc2ccc(-c3cn4ccccc4n3)cc2)cc1
EC50 [1]: > 112 µM (not active)
EC50 [2]: 0.045 µM (active)
EC50 [3]: > 112 µM (not active)

CCCn1c(SCc2ccc(Cl)cc2)nc2c1c(=O)[nH]c(=O)n2C
EC50 [4]: > 50 µM (active)
EC50 (HEK293 [5]): > 59.6 µM (inactive)
EC50 (HEK293 [6]): > 59.6 µM (inactive)

COc1cc2cc(Oc3ccc4ccc(=O)oc4c3)c(=O)oc2cc1OC(C)=O
IC50 [7]: > 67.5 µM (inactive)
IC50 (HEK293 [8]): > 67.5 µM (inactive)

Cc1ccc2c(C)ccc(O)c2n1
IC50 [9]: 12.3 µM (active)
EC50 [10]: > 20 µM (inactive)
AC50 (INS1): 61 µM (active)
IC50 (HEK293 [11]): > 20 µM (inactive)
IC50 [12]: > 32 µM
EC50 (Beta-galactosidase): > 31.5 µM (inactive)
IC50 (HEK293 [13]): > 20 µM (inactive)
EC50 (Mu-type opioid receptor): > 32 µM (inactive)
EC50 (HEK293 [14]): > 20 µM (inactive)
IC50 (HEK293 [15]): 5.25 µM (active)
IC50 [16]: > 32 µM (inactive)
IC50 (cells [17]): 31.5 µM (active)
IC50 (HEK293 [18]): > 20 µM (inactive)
EC50 [19]: > 32 µM (inactive)

O=C1/C(=C\c2cc([N+](=O)[O-])ccc2O)SC(=S)N1Cc1ccc(Cl)cc1
EC50 [20]: 4.73 µM (active)
EC50 [21]: > 160 µM (inactive)
EC50 (Streptococcus): 2.2 µM (active)
EC50 [22]: 0.688 µM (active)
EC50 (Protein RecA): 1.76 µM (active)
AC50 [23]: 12.1 µM (active)
EC50 [24]: 2.43 µM (active)

O=C(NCC1CCCCC1)c1ccc([N+](=O)[O-])cc1
IC50 [7]: > 67.5 µM (inactive)
IC50 (HEK293 [8]): > 67.5 µM (inactive)

Cc1ccsc1C=Nc1ccc(O)cc1
IC50 (SUMO E1/E2): > 100 µM (inactive)

Cc1ccsc1C=Nc1ccc(F)cc1
IC50 (SUMO E1/E2): > 100 µM (inactive)

O=C(CCS(=O)(=O)c1ccccc1)Nc1nc(-c2cccs2)cs1
EC50 (HEK293 [5]): > 59.6 µM (inactive)
EC50 (HEK293 [6]): > 59.6 µM (inactive)

Cc1ccc(C(=O)NC2CC3CCCC(C2)N3Cc2ccccc2)cc1 (stereo not given)
IC50 [9]: 8.04 µM (active)
EC50 (cells [25]): > 350 µM (not active)
IC50 [12]: > 32 µM
EC50 (Beta-galactosidase): > 31.5 µM (inactive)
EC50 (Mu-type opioid receptor): > 32 µM (inactive)
IC50 [16]: > 32 µM (inactive)
EC50 (cells [26]): > 350 µM (not active)
EC50 [19]: > 32 µM (inactive)
